Here are results for 3 compounds from patent US20040024043A1, “Method for treating cognitive disorders” (priority 2002, published 2004).

pIC50: −log10 of the molar value. “Also recorded” adds a separate entry of the source.

Data set [1] can be described thus: Randomized, double-blind, placebo-controlled 12-week efficacy study (NPI, CGIC, ADAS-cog, MMSE, CANTAB, ADCS-ADL). The note with it: 50 mg BID 2 weeks then 100 mg BID 10 weeks. The class given is in vivo, patients. The text has this:
A randomized, double-blind, placebo-controlled study is done to measure the efficacy of the (+) phenserine tartrate or formation as in Example 6 in given daily over twelve (12) weeks, in 60 patients diagnosed as having symptoms similar to those caused by Alzheimer's disease (PAD). In this study there was a total of 60 eligible patients with PAD whose primary language is English, and the patients constituted male and female patients between the ages of 50 and 85 years.
Forty patients will receive two weeks of PT and a 50 mg BID dose level, at which time their dose will be escalated to 100 mg BID, where it will remain for the final ten (10) weeks. Concurrently, twenty patients assigned to placebo medication receive matched placebo capsules for the entire 12 week duration of the study. A sufficient number of potential patients are screened to ensure enrollment of 60 eligible cases.
All study participants were evaluated prior to the study (First Level) and periodically throughout using the following standard efficacy tests;
NPI (Neuropsychiatric Inventory,
CGIC (Clinician's Global Impression of Change)
ADAS-cog (Alzheimer's Disease Assessment Scale—cognitive subscale)
MMSE (Mini-Mental State Exam)
CANTAB (Cambridge Neuropsychological Test Automated Battery—
ADCS-ADL (Activities of Daily Living)

The test system of data set [2] is βAPP levels in SK-N-SH cells. The data set can be described thus: βAPP levels by Western blot in neuroblastoma cells. It counts as cell-based. The note with it: 0.5 μM to 50 μM, various time intervals up to 16 hours. As to the method: (§1) The (+) enantiomer of formula I prepared in Example 2 was tested against its phenserine with respect to controlling β-APP levels in and the resulting toxic amyloid protein (Aβ protein) derived from the β-APP-protein by the procedure disclosed in the Shaw et al. Proc. Nat. Acad. Sci. USA (2001), 98 (13), 7605-7610. Pages […] except that the test given below included (+) enantiomer of phenserine as well as phenserine itself so that phenserine and its (+) enantiomer were tested side by side for their effect in reducing the β-APP and Aβ-proteins. The methodology of Shaw et al for carrying out these tests is summarized as follows:
(§2) Drug treatment: SK-N-SH neuroblastoma cells were cultured on 60 mm dishes at a concentration of 3×10^6 cells, and SH-SY-5Y neuroblastoma cells were plated in 100 mm dishes at a concentration of 3×10^5 cells. The cells were allowed to grow in complete media (10% FBS, 2 mM glutamine in DMEM) for 3 to 4 days until they reached 70% confluence. To start the experiment, spent media were removed and replaced with fresh media (DMEM+0.5% FBS) containing 0, 5 or 50 μM of either (−)- or (+)-phenserine, and cells were incubated at 37 C, 5% CO2 for the specific times indicated.
Lysate preparation: At each time point, the spent medium was collected and stored at −70 C for later analysis of secretory βAPP levels. Cell lysates were prepared as reported previously (Lahiri et al., 1997 and 1998). Protein levels of the supernatant were analyzed by the Bradford protein assay (BioRad, Mellville, N.Y.).
Western Blot: Fifteen μg of protein from each sample was laded onto a 10% NuPAGE Bis-Tris gel in 1× NuPAGE MOPS SDS running buffer (NOVEX, San Diego, Calif.) and the proteins separated at 200 V for 45 min. The gels then were transferred onto nitrocellulose at 25 V for 1.5 h. […] Equivalent loading of samples was determined by Ponceau S staining (Sigma, St. Louis, Mo.). Densimetric quantification of the chemiluminesence of blots was undertaken by using a […] and NIH-IMAGE (version 4.1).
(In general: Immunoblotting shows a protein as a band on a membrane.)

Data set [3] concerns Aβ protein levels in SK-N-SH cells. The data set can be described thus: Total Aβ assay (ELISA) in neuroblastoma cell cultures. The note with it: especially after 10 hours. It counts as cell-based. As to the method:
as §1, §2
Total Aβ Assay: Total Aβ peptide levels in SH-SY-5Y and SK-N-SH cultured samples were assayed by a sensitive ELISA (Suzuki et al., 1994). For total Aβ measurements, the a sandwich immunoassay with rabbit polyclonal antibody to residues 1-40 residues of Aβ as a capture antibody for all species of Aβ peptide Aβ1-40 and Aβ1-42 and the monoclonal antibody to 17-25 residues of Aβ was used to detect Aβ peptide levels, and the values were expressed as the mean of six independent assays.

Data set [4] is described as follows: In vivo studies: cholinergic side effects after i.p. administration. The note with it: rodents. The method, then: This is a classical central (i.e., brain) cholinergic over-stimulation (overdrive) effect. Such a tremor persisted for approximately 1 hour.
In data set [5] the target is T1, acetylcholinesterase (Homo sapiens, UniProt P22303). The note with it: as stated in Shaw et al., PNAS 2001; read-out: concentration of compound required to inhibit 50% acetylcholinesterase activity; cited from earlier work.
Target sequence in this assay (P22303 32-614, species assumed): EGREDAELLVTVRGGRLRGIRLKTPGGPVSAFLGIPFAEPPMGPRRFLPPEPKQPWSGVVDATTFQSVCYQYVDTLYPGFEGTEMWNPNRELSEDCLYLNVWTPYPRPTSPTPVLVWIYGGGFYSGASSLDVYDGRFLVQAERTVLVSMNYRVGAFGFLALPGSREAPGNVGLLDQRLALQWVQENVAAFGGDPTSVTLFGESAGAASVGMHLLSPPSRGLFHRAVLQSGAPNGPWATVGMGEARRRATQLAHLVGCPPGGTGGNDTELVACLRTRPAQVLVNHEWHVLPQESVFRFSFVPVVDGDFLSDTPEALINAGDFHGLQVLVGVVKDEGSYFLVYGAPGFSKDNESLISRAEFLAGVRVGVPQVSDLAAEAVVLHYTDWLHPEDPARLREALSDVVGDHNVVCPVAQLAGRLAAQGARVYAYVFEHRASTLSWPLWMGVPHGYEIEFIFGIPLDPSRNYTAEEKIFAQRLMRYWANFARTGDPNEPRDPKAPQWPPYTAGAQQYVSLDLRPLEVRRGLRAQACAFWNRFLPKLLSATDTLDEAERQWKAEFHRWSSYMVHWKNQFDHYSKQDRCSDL
For data set [6], the target named is T1, acetylcholinesterase. Conditions: compared with negative enantiomer phenserine; Pei, Greig et al. 1995; cited from earlier work.
Target sequence in this assay (P22303 32-614): as the sequence (P22303 32-614, species assumed) above

Consider `CN1CC[C@]2(C)c3cc(OC(=O)Nc4ccccc4)ccc3N(C)[C@H]12.O=C(O)C(O)C(O)C(=O)O` (single isomer, unassigned) [(+) phenserine tartrate, tartaric acid salt of the +enantiomer of N-phenyl carbanoyl eseroline], for which, in data set [1] (patients with symptoms similar to Alzheimer's disease, oral capsules), the “level in the efficacy tests at end of twelve weeks versus First Level prior to treatment” value is on record as “maintain a level at least as great as the First Level”. The “patients with an improvement over First Level at end of twelve-week period” value in data set [1] (treated group) is reported as “about 30%”.
As for `CN1CC[C@]2(C)c3cc(OC(=O)Nc4ccccc4)ccc3N(C)C12` (single isomer, unassigned; (+)) [(+)-phenserine, (+) 9-N-phenylcarbinol esroline], the “βAPP levels compared to control” value in data set [2] (FIGS. 1 and 3) is “effective in reducing”; in data set [2] (FIGS. 1 and 3, listed as positive isomer of phenserine), “reduces the production”. The “levels of Aβ protein compared to control” value is listed as “effective in reducing” in data set [3] (FIGS. 2 and 3); “reduces the production” in data set [3] (FIGS. 2 and 3, listed as positive isomer of phenserine). Also, the symptoms observed result in data set [4] (20 mg/kg) is given as “entirely without symptoms”. Further, the pIC50 at acetylcholinesterase [5] was less than 4.60. The “activity as an inhibitor of human acetylcholinesterase” value at acetylcholinesterase [6] is reported as “far less active”.
Turning to `CN1CC[C@@]2(C)c3cc(OC(=O)Nc4ccccc4)ccc3N(C)C12` (single isomer, unassigned; (-)) [(−)-phenserine, (−) N-(−)-N phenyl canbamoyleseroline], the “βAPP levels compared to control” value in data set [2] (FIGS. 1 and 3) was “reduces secreted and cellular βAPP levels in a concentration dependent manner; also recorded: decreased the βAPP levels”. The “levels of Aβ protein compared to control” value in data set [3] (FIGS. 2 and 3) was “reduced Aβ protein levels; also recorded: substantially reduced”. The persistence of tremor entry in data set [4] (5 mg/kg) was “approximately 1 hour”. Further, the symptoms observed entry in data set [4] (5 mg/kg (1 ml/kg in isotonic saline)) is “fine tremor”; in data set [4] (7.5 mg/kg), “Tremor, together with symptoms of peripheral over-stimulation (specifically, lacrimation and salivation)”; in data set [4] (20 mg/kg), “incapacitated by severe tremor and peripheral side effects”. Also, in data set [4] (20 mg/kg), the “animals killed when moribund, of 5 treated animals” value is 2.
